Consider 1 compound from PMC9673926, “Nucleotide binding as an allosteric regulatory mechanism for Akkermansia muciniphila β-N-acetylhexosaminidase Am2136” (Gut Microbes, 2022).

For assay [1], the target named is T1, Am2136 WT (Akkermansia muciniphila, UniProt B2UPR7).
T1 construct: The coding region (residue Q20-L756) of Am2136 without signal peptide was based on UniProt; 6XHis (N); made in house; host or cells: E. coli BL21 (DE3)
The assay can be described thus: Nucleotide binding affinity by intrinsic fluorescence. Here is the method: The nucleotide binding ability was determined on Fluorescence Spectrometer Duetta (HORIBA) by measuring the change of peak intensity. The fluorescence was excited at 286 nm and emitted at 336 nm. And the measurement was processed under 400 V voltage with 2.5 nm excitation slit and 5 nm emission slit. […] The sample was incubated at 4°C for 5 min before testing.

Assay [2] deals with T2, Am2136 Y550A (Akkermansia muciniphila, UniProt B2UPR7, Y550A).
T2 sequence (B2UPR7 20-756 Y550A): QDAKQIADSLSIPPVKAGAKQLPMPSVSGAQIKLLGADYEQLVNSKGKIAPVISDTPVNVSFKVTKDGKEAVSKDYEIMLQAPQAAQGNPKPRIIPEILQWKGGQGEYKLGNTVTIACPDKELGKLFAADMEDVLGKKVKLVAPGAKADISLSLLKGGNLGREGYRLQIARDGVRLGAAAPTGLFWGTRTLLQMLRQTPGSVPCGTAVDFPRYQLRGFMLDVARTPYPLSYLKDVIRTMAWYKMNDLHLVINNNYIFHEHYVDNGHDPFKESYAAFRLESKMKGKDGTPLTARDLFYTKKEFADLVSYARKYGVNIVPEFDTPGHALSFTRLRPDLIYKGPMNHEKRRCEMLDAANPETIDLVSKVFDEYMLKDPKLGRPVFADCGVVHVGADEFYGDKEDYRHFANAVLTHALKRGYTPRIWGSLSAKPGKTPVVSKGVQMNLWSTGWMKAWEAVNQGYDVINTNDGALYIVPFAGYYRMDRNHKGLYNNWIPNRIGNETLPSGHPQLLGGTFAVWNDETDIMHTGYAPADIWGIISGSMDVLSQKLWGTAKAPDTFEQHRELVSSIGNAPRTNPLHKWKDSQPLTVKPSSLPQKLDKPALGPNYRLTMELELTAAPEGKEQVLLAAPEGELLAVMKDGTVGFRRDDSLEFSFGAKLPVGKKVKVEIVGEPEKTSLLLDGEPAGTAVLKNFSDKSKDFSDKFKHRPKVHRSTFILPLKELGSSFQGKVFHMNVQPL
The assay is described as follows: GDP regulated enzyme activity assay, mutant. The conditions noted are these: 1 mM GDP, substrate pNP-β-GlcNAc.

For assay [3], the target named is T3, Am2136 R592A (Akkermansia muciniphila, UniProt B2UPR7, R592A).
T3 sequence (B2UPR7 20-756 R592A): T2 sequence (B2UPR7 20-756 Y550A) with A531Y, R573A
The assay can be described thus: GDP regulated enzyme activity assay, mutant. The conditions noted are these: 1 mM GDP, substrate pNP-β-GlcNAc.

Assay [4] addresses T4, Am2136 P595A+H597A (Akkermansia muciniphila, UniProt B2UPR7, H597A/P595A).
T4 sequence (B2UPR7 20-756 P595A/H597A): T2 sequence (B2UPR7 20-756 Y550A) with A531Y, P576A, H578A
The assay is described as follows: GDP regulated enzyme activity assay, mutant. The conditions noted are these: 1 mM GDP.

Residue numbers refer to the chain shown, from its start.

T1 sequence (B2UPR7 20-756): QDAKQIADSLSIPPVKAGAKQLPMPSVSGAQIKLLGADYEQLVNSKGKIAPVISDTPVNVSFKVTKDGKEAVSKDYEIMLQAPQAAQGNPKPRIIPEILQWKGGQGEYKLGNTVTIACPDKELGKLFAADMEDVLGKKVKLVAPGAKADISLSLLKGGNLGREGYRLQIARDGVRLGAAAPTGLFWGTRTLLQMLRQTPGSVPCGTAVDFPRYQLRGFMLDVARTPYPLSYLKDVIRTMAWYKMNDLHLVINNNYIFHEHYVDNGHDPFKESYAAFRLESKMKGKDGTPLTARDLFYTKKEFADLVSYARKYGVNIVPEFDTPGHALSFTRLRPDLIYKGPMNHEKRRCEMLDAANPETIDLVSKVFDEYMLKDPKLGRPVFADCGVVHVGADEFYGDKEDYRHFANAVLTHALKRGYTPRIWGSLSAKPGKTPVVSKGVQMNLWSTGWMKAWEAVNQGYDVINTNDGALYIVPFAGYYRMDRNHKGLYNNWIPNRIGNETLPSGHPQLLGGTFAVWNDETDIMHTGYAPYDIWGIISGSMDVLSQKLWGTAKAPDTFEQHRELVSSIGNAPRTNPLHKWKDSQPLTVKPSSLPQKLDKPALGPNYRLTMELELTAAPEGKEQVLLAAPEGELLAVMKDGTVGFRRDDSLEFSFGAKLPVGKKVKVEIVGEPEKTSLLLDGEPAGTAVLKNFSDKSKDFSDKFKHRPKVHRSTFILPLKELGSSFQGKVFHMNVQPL

For the compound `Nc1nc2c(ncn2[C@@H]2O[C@H](COP(=O)(O)OP(=O)(O)O)[C@@H](O)[C@H]2O)c(=O)[nH]1` [GDP], the Kd in assay [1] (Am2136 WT, fluorescence ex 286 nm/em 336 nm) is 116 µM; in assay [1] (WT dialyzed (EDTA treated)) it was 114 ± 5.22 µM; in assay [1] (WT dialyzed + Ca^2+), 117 ± 4.37 µM; in assay [1] (WT dialyzed + Mg^2+) it was 118 ± 5.85 µM. In addition, the maximum rate (Vmax) in assay [2] stood at 463 ± 7 µmol/min; in assay [3], 442 ± 5 µmol/min; in assay [4] (P595A+H597A, substrate pNP-β-GlcNAc), 447 ± 4 µmol/min. Moreover, in assay [4] (P595A/H597A), the “increase of kcat/Km with versus without GDP” value is “roughly two-fold increase”.
